Calls of active or inactive are those of the source.
Columns and labels:
[1] = target: 5-hydroxytryptamine receptor 2A (Mus musculus, UniProt P35363); type: functional, cell-based;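 note: CHO-K1 cells with tagged receptor and beta-arrestin; agonist potency measured as compound-induced activation of the receptor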
Mu-type opioid receptor = Mu-type opioid receptor (Homo sapiens, UniProt P35372); type: functional, cell-based;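 note: U2OS cells with beta-arrestin recruitment to OPRM1 by beta-gal complementation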
Chain of Mu-type opioid receptor (P35372 whole entry): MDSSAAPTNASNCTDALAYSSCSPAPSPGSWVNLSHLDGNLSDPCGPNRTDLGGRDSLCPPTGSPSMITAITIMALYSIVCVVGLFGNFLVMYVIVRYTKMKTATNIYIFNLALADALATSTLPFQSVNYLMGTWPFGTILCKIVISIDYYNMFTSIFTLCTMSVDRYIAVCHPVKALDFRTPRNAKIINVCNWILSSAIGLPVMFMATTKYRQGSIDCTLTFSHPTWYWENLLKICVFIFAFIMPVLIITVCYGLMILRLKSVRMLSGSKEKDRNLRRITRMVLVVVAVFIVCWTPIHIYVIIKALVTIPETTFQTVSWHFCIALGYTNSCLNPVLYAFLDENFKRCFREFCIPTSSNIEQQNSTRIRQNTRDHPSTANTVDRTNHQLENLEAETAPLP

[2] = target: Matrix metalloproteinase-14 (Homo sapiens, UniProt P50281); assay: Dose Response confirmation of uHTS hits for a small molecule inhibitors of MT1-MMP activation in a fluorescence assay set 1.; type: functional
[3] = blockers of bursicon-stimulated LGR2 cAMP reporter – cell-based, HEK293, CRE-luciferase reporter, cherry pick, set 2, dose response (AID 743343); type: functional;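 note: transfected cells were stimulated with diluted bursicon conditioned medium after compound addition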
[4] = toxicity toward HepG2 liver cells – cell-based, plate reader, cherry-pick, antagonist series, cytotoxicity control, dose response (AID 743416); type: functional
[5] = blockade of melanocortin 4 receptor signaling – cell-based, plate reader, cherry pick, counter-screen for LGR2 antagonist project, dose response (AID 743444); type: functional;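 note: transfected HEK 293 cells stimulated with alpha-MSH peptide; potency of inhibitors of the alpha-MSH evoked signal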
[6] = A549 cell cytotoxicity, dose response, cytotoxicity control, plate reader, cherry-pick, antagonist series (AID 743412); type: functional, cell-based
HeLa = assay: viability loss in HeLa cells – cell-based, ATP luminescence, cherry-pick samples, cytotoxicity control, dose response (AID 687004); type: functional; settings: Homo sapiens
[7] = target: T1, High affinity choline transporter 1 (Homo sapiens, UniProt Q9GZV3); assay: inhibition of SLC5A7-mediated choline transport – cell-based, HEK-293 hCHT, [3H]-choline uptake, dose response (AID 652177); type: functional
T1 sequence (Q9GZV3 whole entry): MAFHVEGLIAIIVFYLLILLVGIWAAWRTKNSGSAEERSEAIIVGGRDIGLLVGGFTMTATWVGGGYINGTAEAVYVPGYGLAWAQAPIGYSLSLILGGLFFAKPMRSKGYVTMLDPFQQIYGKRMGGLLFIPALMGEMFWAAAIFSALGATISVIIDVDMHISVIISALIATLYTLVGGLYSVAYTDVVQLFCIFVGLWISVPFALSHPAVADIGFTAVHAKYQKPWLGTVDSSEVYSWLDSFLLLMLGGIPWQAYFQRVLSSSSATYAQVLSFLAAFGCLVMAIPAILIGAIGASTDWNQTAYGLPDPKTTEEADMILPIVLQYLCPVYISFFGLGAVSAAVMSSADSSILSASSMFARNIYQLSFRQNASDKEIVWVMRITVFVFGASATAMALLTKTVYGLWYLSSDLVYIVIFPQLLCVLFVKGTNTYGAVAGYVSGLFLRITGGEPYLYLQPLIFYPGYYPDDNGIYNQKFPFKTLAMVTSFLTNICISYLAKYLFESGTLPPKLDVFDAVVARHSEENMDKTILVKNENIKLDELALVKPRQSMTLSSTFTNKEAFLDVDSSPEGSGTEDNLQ

[8] = HeLa cell viability loss – 24 h, dry powder, set 2, cytotoxicity control, dose response (AID 651774); type: functional, cell-based
[9] = target: T2, Calpain-2 catalytic subunit (Sus scrofa, UniProt P43367); assay: m-calpain protease blockers, concentration series – biochemical, fluorogenic peptide substrate, dose response (AID 1420); type: functional
T2 sequence (P43367 whole entry): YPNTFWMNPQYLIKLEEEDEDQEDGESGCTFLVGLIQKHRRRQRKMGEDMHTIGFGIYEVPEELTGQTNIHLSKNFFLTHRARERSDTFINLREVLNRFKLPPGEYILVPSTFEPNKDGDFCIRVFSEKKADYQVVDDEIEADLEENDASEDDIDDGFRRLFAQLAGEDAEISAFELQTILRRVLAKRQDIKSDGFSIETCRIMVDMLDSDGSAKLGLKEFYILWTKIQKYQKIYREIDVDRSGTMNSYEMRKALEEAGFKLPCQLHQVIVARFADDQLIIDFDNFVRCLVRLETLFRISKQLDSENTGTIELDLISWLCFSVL

[10] = target: Mitochondrial peptide methionine sulfoxide reductase (Bos taurus, UniProt P54149); type: functional;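 note: absorbance read-out, biochemical high-throughput dose-response screen for MsrA inhibitors, confirmatory; recombinant bovine MsrA coupled to E. coli TrxB with NADPH and selenocystamine; potency is for inhibitors of MsrA activity on DMSO substrate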
Chain of Mitochondrial peptide methionine sulfoxide reductase (P54149 whole entry): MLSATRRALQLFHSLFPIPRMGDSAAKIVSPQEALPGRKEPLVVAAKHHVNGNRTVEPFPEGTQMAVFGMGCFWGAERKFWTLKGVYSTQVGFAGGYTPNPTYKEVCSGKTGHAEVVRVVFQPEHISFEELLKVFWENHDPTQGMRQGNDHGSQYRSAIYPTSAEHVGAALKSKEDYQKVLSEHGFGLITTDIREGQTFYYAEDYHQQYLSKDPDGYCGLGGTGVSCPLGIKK

[11] = target: ADP-ribosylation factor GTPase-activating protein 1 (Rattus norvegicus, UniProt Q62848); assay: Fluorescence polarization-based biochemical high throughput dose response screening assay to identify inhibitors of ADP-ribosylation factor GTPase activating protein 1 (ARFGAP1).; type: functional
Chain of ADP-ribosylation factor GTPase-activating protein 1 (Q62848 whole entry, the tested form may be a part): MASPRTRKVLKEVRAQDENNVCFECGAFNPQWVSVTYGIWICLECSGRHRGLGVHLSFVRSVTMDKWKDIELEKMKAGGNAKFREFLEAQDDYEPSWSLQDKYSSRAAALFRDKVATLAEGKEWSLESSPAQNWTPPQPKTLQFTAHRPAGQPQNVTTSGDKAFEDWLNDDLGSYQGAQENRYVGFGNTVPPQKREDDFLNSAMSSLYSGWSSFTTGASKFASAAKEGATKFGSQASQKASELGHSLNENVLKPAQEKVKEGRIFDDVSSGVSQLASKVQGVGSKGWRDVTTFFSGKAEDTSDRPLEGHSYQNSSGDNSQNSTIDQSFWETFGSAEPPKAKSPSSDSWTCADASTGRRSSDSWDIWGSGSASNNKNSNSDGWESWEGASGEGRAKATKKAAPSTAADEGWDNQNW

[12] = target: Arf-GAP with SH3 domain, ANK repeat and PH domain-containing protein 1 (Homo sapiens, UniProt Q9ULH1); type: functional;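 note: biochemical fluorescence polarization dose–response screen measuring inhibition of ASAP1; ASAP1 GAP domain stimulating GTP hydrolysis by truncated human ARF1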
Chain of Arf-GAP with SH3 domain, ANK repeat and PH domain-containing protein 1 (Q9ULH1 whole entry, the tested form may be a part): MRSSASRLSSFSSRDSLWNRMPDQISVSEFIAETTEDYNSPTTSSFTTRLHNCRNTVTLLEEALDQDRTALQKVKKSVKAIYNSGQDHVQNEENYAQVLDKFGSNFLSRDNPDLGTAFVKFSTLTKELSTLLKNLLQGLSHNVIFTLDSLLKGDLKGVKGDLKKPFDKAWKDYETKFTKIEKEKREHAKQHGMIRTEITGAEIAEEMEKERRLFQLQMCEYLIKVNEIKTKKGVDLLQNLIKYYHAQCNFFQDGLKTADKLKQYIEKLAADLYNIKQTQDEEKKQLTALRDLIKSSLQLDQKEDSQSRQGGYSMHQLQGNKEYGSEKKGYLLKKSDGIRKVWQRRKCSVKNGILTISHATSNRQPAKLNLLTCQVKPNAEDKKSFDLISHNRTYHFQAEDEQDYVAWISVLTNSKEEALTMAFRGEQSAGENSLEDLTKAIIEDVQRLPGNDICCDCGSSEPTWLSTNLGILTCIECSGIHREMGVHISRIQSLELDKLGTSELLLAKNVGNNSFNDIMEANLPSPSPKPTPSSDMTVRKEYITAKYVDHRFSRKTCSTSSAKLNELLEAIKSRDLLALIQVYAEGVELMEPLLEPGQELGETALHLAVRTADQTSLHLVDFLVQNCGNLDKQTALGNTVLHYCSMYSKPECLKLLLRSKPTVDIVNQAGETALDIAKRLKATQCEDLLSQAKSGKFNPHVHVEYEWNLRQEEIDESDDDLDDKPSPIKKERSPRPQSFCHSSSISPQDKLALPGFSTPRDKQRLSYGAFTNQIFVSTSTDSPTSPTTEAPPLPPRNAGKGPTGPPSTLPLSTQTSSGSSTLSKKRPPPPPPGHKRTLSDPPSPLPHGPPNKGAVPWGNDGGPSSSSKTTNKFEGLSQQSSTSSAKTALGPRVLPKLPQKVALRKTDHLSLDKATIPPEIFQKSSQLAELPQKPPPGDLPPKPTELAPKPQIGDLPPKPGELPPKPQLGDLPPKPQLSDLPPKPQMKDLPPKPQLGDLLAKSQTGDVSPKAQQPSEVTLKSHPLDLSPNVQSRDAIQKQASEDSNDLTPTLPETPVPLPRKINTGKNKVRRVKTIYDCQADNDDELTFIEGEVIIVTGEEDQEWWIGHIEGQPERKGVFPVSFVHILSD

Chain of 5-hydroxytryptamine receptor 2A (P35363 whole entry): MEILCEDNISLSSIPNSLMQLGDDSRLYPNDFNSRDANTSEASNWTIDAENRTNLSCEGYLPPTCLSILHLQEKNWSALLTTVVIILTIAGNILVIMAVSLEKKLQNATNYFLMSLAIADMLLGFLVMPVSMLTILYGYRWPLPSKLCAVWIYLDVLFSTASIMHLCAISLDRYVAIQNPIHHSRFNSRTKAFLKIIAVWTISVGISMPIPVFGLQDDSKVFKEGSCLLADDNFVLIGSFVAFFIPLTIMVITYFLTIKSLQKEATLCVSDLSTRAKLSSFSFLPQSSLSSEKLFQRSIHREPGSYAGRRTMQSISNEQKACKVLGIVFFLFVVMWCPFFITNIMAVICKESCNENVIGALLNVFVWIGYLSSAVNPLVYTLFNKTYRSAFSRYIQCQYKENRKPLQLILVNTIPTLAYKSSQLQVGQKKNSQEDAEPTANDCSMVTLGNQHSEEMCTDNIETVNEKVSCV

CCC(=O)c1ccc(OCC(O)CN2CCN(c3ccccn3)CC2)cc1 (centres undefined)
EC50 [1]: 0.306 µM (active)
EC50 (Mu-type opioid receptor): 92.5 µM (inactive)

Cc1ccc(S(=O)(=O)/N=C2\C=C(NS(=O)(=O)c3ccccc3)C(=O)c3ccccc32)c(C)c1
IC50 [2]: 14 µM (active)

Cc1ccc2nc(-c3ccccc3)nn2c1
AC50 [3]: 2.48 µM (active)
AC50 [4]: > 52 µM (inactive)
AC50 [5]: 3.56 µM (active)
AC50 [6]: > 52 µM (inactive)

C[C@H](CO)N1C[C@H](C)[C@H](CN(C)Cc2ccccc2)Oc2cc(C#Cc3ccccn3)ccc2S1(=O)=O
AC50 (HeLa): > 52 µM (inactive)

COc1ccc(C(=O)NCc2csc(C)n2)cc1OC1CCN(C(C)C)CC1
IC50 [7]: 6.18 µM (active)

c1ccc(-c2ccc(CCNC3CCCC3)cc2)cc1
AC50 [8]: > 70 µM (inactive)

CCOC(=O)C/C(C)=N\Nc1ccc([N+](=O)[O-])cc1[N+](=O)[O-]
IC50 [9]: 23 µM (not active)
IC50 [10]: 155 µM (inactive)

COc1cc(/C=N\NC(=O)c2ccc(C)nc2)ccc1OC(=O)c1ccc2c(c1)OCO2
IC50 [11]: 21 µM (inactive)
IC50 [12]: 24.8 µM (inactive)
